According to patent US20250213561A1, “SELECTIVE HYPOTHALAMUS PERMEABLE HDAC6 INHIBITORS FOR TREATMENT OF LEPTIN-RESISTANT OBESITY” (The Children’s Medical Center Corporation, priority 2022, published 2025):

How the values were obtained:
Assay type in all cases: in vivo
DIO mice [1] = experiment: Acute leptin co-treatment in DIO mice (body weight, food intake 15 h); details: for body weight, leptin after pre-treatment with inhibitor: 3 days pre-treatment
Method: DIO mice were pretreated with ACY775 (10 mg/kg/day, i.p.) or vehicle for 3 days, which was followed by co-treatment with ACY775 (or vehicle) and leptin (1 mg/kg, i.p.) (or saline) (n=9 for each group), % change in body weight 15 h after leptin treatment, food intake (g) during the 15 h period after leptin treatment. The results in were reproduced in two independent experiments.
Diet induced obese (DIO) mice were pretreated with ACY775 (10 mg/kg/day, i.p.) or vehicle for 3 days, which was followed by co-treatment with ACY775 (or vehicle) and leptin (1 mg/kg, i.p.) (or saline) (n=9 for each group). Mice were evaluated for % change in body weight 15 h after leptin treatment, and food intake (g) during the 15 h period after leptin treatment.
DIO mice were pretreated with ricolinostat (25 mg/kg/day, i.p.) or vehicle for 3 days, which was followed by co-treatment with ricolinostat (or vehicle) and leptin (1 mg/kg, i.p.) (or saline) (n=32 for each group). Change in body weight 15 h after leptin treatment, and food intake (g) during the 15 h period after leptin treatment were determined. The results were reproduced in two independent experiments.

p-STAT3^Tyr705 = experiment: Leptin-stimulated hypothalamic STAT3 Tyr705 phosphorylation in DIO mice; details: 45 minutes after leptin 1 mg/kg i.p.
Method: DIO mice were pretreated with ACY775 (10 mg/kg/day, i.p.) or vehicle for 3 days, which was followed by a last injection of ACY775 (or vehicle) in the morning of fourth day. 6 hours later mice were injected with saline or leptin (1 mg/kg, i.p.) and hypothalamus were extracted after 45 minutes following the leptin injection. Representative immunoblots for STAT3^Tyr705 phosphorylation and total STAT3 from the hypothalamus. Quantification of the ratio of p-STAT3^Tyr705 to total-STAT3 signal in the immunoblots. The results were reproduced in three independent experiments. The results were analyzed hourly.
DIO mice were pretreated with ACY775 (10 mg/kg/day, i.p.) or vehicle for 3 days, which was followed by a last injection of ACY775 (or vehicle) in the morning of fourth day. 6 hours later mice were injected with saline or leptin (1 mg/kg, i.p.) and the hypothalamus were extracted after 45 minutes following the leptin injection.
6 hours later mice were injected with saline or leptin (1 mg/kg, i.p.) and hypothalamus were extracted after 45 minutes following the leptin injection. Immunoblots for STAT3^Tyr705 phosphorylation and total STAT3 from the hypothalamus were made to quantify the ratio of p-STAT3^Tyr705 to total-STAT3 signal in the immunoblots. The results were reproduced in two independent experiments.
DIO mice were pretreated with ricolinostat (50 mg/kg/day, i.p.) or vehicle 3 days, which was followed by a last injection of ricolinostat (or vehicle) in the morning of fourth day. 6 hours later mice were injected with saline or leptin (1 mg/kg, i.p.) and the hypothalamus were extracted after 45 minutes following the leptin injection. Immunoblots were performed for STAT3^Tyr705 phosphorylation and total STAT3 from the hypothalamus. The ratio of p-STAT3^Tyr705 to total STAT3 signal in the immunoblots was quantified.

DIO mice [2] = experiment: Single dose food intake in 24 h fasted DIO mice; details: ACY775 10 mg/kg, ACY738 50 mg/kg i.p.
Method: Food intake was analyzed hourly until 3:00 am. […] DEXA scans were performed in two different cohorts.

DIO mice [3] = experiment: CLAMS metabolic cages in DIO mice; details: for energy expenditure: 3 days, ACY775 10 mg/kg, ACY738 50 mg/kg i.p.
Method: Diet induced obese (DIO) mice were placed into metabolic cages and received ACY775 (10 mg/kg, i.p., n=7) or vehicle (n=8) once a day for 3 days. Energy expenditure, respiratory exchange ratios (RER; VCO2/VO2), ambulatory count (physical activity) from each group of mice were determined. Bar graphs represent average of two dark (8-20 and 32-44 hr) and two light cycles ([…]).
Comprehensive Lab Animal Monitoring System (CLAMS) was used to measure metabolic parameters such as energy expenditure (EE) and respiratory exchange ratio (RER) and physical activity levels in Vehicle- and ACY775-treated mice.

DIO mice [4] = experiment: Conditioned place preference (CPP) assay in DIO mice; details: for time and frequency in the food zone / time and frequency in the food-containing white side chambers: fed and fasting conditions; for cumulative duration in the dark side chambers: fed or fasting conditions
Method: DIO mice were treated with vehicle or ACY775 (10 mg/kg, i.p., once a day) for 3 days. On the fourth day, 1 h after the beginning of the light cycle, the mice were administered vehicle or ACY775 (10 mg/kg, i.p.) and the conditioned place preference (CPP) assay under the ad libitum feeding condition was utilized. The CPP assay was performed 6 h later under the ad libitum feeding condition (n=10 mice for both the Vehicle- and ACY775-treated groups). CPP assay under a 20-h fasting condition was also performed. DIO mice were treated with vehicle or ACY775 (10 mg/kg, i.p.) once a day and fasted for 15 h after the third injection. On the fourth day, 1 h after the beginning of the light cycle, the mice were administered vehicle or ACY775 (10 mg/kg body weight, i.p.) and the CPP assay was performed 5 h after this injection under the fasting condition (n=10 mice for both the Vehicle- and ACY775-treated groups).
Measurements were made of the total distance that the mice traveled during the CPP test, the average velocity of movement during the assay, the total time the mice spent in the dark chamber during the test; the frequency with which the mice traveled to the dark chamber during the test; the total time the mice spent in the food-paired white chamber; the frequency with which the mice traveled to the food paired white chamber; the total time the mice spent in the food-containing zone within the food-paired side chamber; and the frequency with which the mice traveled to the food-containing zone within the food-paired side chamber during the test.

db/db mice = experiment: Chronic treatment of db/db mice; details: for ITT blood glucose: 2 weeks; for fasting blood glucose: after the first week
Method: Daily food intake (g), Serum leptin (ng/ml), lean mass (g), fat mass (g) and fat percentage (%) were measured after 3 weeks of treatment measured by DEXA scan. GTT was determined after 1 week of treatment. AOC analysis for GTT was performed and Blood glucose (mg/dl) levels were measured after 1 week of treatment. Blood glucose (mg/dl) levels and Serum insulin (ng/ml) levels were measured after 3 weeks of treatment. ITT was assessed after 2 weeks of treatment. H&E staining of the liver sections was conducted after 3 weeks of treatment.

HDAC6-KO DIO mice = experiment: Chronic treatment of DIO WT versus HDAC6 KO mice; details: for blood glucose, serum insulin and leptin levels, WT versus HDAC6 KO / fat mass and fat %, WT versus HDAC6 KO / food intake, WT versus HDAC6 KO / glucose tolerance and insulin sensitivity (GTT, ITT), WT versus HDAC6 KO / lean mass, WT versus HDAC6 KO / body weight, WT versus HDAC6 KO: DIO mice; for body weight, WT versus HDAC6 KO: 3 weeks, ACY775 10, ACY738 50, Tubastatin A 25 mg/kg/day i.p.
[5] = leptin 1 mg/kg i.p., 15 h period

| Compound | body weight, leptin after pre-treatment with inhibitor (DIO mice [1]; leptin 1 mg/kg i.p., 15 h) | food intake, leptin together with inhibitor (DIO mice [1]; [5]) | leptin-stimulated hypothalamic p-STAT3^Tyr705 (p-STAT3^Tyr705) | food intake after a single dose (DIO mice [2]) | energy expenditure (DIO mice [3]) | time and frequency in the food zone (DIO mice [4]) | time and frequency in the food-containing white side chambers (DIO mice [4]) | cumulative duration in the dark side chambers (DIO mice [4]) | food intake (db/db mice) | ITT blood glucose (db/db mice) | fasting blood glucose (db/db mice) | blood glucose, serum insulin and leptin levels, WT versus HDAC6 KO (HDAC6-KO DIO mice) | fat mass and fat %, WT versus HDAC6 KO (HDAC6-KO DIO mice) | food intake, WT versus HDAC6 KO (HDAC6-KO DIO mice) | glucose tolerance and insulin sensitivity (GTT, ITT), WT versus HDAC6 KO (HDAC6-KO DIO mice) | lean mass, WT versus HDAC6 KO (HDAC6-KO DIO mice) | body weight, WT versus HDAC6 KO (HDAC6-KO DIO mice) | other results |
| --- | --- | --- | --- | --- | --- | --- | --- | --- | --- | --- | --- | --- | --- | --- | --- | --- | --- | --- |
| O=C(NO)c1cnc(NC2(c3ccccc3)CC2)nc1 [ACY738] | significantly augmented the acute leptin-induced reduction in body weight and food intake | significantly augmented the acute leptin-induced reduction in body weight and food intake | substantially increased | significantly reduced/blocked the food intake | higher energy expenditure in light cycle, though without significant difference in dark cycle | spent significantly shorter time and displayed lower frequency of appearance | spent similar time and frequency of appearance | no significant differences in cumulative duration | not affected | no significant difference in blood glucose levels | not affected | all significantly higher in the ACY738-treated HDAC6 KO group | significantly lower in the wt group compared to the HDAC6 KO group | significantly higher in the HDAC6 KO group | did not improve glucose tolerance and increase insulin sensitivity in the HDAC6 KO mice | not different | major difference | body weight in HDAC6 KO mice (HDAC6-KO DIO mice; DIO HDAC6 KO mice): slight decrease |
| O=C(NO)c1cnc(NC2(c3cccc(F)c3)CCCCC2)nc1 [ACY775, 2-[[1-(3-fluorophenyl)cyclohexyl]amino]-N-hydroxy-5-pyrimidinecarboxamide] | further reduction in bodyweight | further augmented the negative effect of leptin on food intake | increased significantly | significantly reduced/blocked the food intake | higher in the both dark and light cycle | spent significantly shorter time and displayed lower frequency of appearance | spent significantly shorter time and had lower frequency of appearance | no significant differences in cumulative duration | transitionally reduced | no significant difference in blood glucose levels | lower in ACY775-treated mice than vehicle-treated mice | all significantly higher in the ACY775-treated HDAC6 KO group | significantly lower in the wt group compared to the HDAC6 KO group | blocked in the HDAC6 KO mice | could not increase glucose tolerance and insulin sensitivity in the HDAC6 KO mice | not different | highly significant decrease in the bodyweight of the WT DIO mice when compared to HDAC6 KO DIO mice | body weight, agent alone (DIO mice [1]; 15 h, ACY775 10 mg/kg, ricolinostat 25 mg/kg, leptin 1 mg/kg i.p.): significantly decreased the bodyweight; food intake, agent alone (DIO mice [1]; 15 h period): reduced the food intake; physical activity level (DIO mice [3]; dark and light cycles): not different; blood glucose lowering at end of treatment (db/db mice; 3 weeks): completely diminished |
